{
  "source": "patent US20210236391A1",
  "about": "“Dental Product, use of a Dental Product and methods of use of a dental product” (DR HEFF'S PRODUCTS LIMITED, priority 2015, published 2021)",
  "key": {"[1]": {"conditions": "five xylitol lozenges spaced across the day, caries-active adults; cited from earlier work"}, "[2]": {"assay": "Apparent mineral density by micro-computed tomography after in vitro pH-proteolytic cycling", "design": "species or system bovine", "conditions": "for effect on mineral density of the caries lesion (in words): after pH-proteolytic cycling and treatments, compared to AS control; for increase percentage of the apparent mineral density (mg HA/ccm): mean values after pH-proteolytic cycling and treatments, micro-CT", "method": "An objective of the experimental study was to investigate the effects of mints containing bioactive agents, specifically the xylitol, ACP and eGCG, in the re-mineralization of root dentin surfaces. […] The caries lesions depths and porosity as well as mineral density (hydroxyapatite content) were estimated using fluorescence microscopy and micro-computed tomography. Extracted sound bovine incisors were freshly collected from a slaughterhouse, cleaned and stored at 4° C. in 0.1% thymol for no longer than 2 weeks. Two root fragments (5×4×1 mm) from the cervical portion (mesial and distal) of the root were obtained from each tooth using diamond disk mounted in a cutting machine (Isomet 1000, Buehler, Lake Bluff, IL, USA). The dentin surfaces were polished using #600 and #800 abrasive paper (Carbimet, Buehler) under constant water irrigation. The entire surface of the fragments was sealed with acid-resistant nail polish, except for a 4×3 mm window on the polished dentin surface. The root fragments were placed in a demineralization solution (2.2 mM CaCl2.2H2O, 2.2 mM KH2PO4, 50 mM acetate, pH 4.6) for 96 h at 37° C. to create initial caries lesions of approximately 120 μm-deep (1). Following lesion development, the fragments were rinsed thoroughly with deionized water, and half of the specimens' windows were covered with an acid-resistant nail polish to maintain the baseline lesion. […] The concentrations were optimized to simulate the in vivo conditions in which the normal salivary flow is 0.5 mL/min (2). Thus, one third of the mints (g) were dissolved in 0.5 ml of artificial saliva and the ingredients concentrations were kept at same ratio as in the original mint formulation. […] All solutions were prepared daily prior to use. In addition to pH cycling, the overnight re-mineralization solutions had bacterial collagenase from Chlostridium Histolycum (100 μg/ml) to simulate enzymatic challenge. Each specimen was sectioned perpendicularly to the varnished area so that each section included the baseline and post-treatment lesions. Half of each sample was used for fluorescence microscopy and the other half was used for micro-computed tomography. Specimens (n=6 per group) were fixed in 10% neutral buffered formalin for 24 h. Specimens were held securely in a specimen holder, which were soaked with phosphate-buffered saline (PBS). […] The manufacturer's software was used to filter noise and segment the data at a threshold of 220. Tissue mineral density (based on a standard calibration phantom provided by the manufacturer) was determined (mg/cc of hydroxyapatite). […] The assumption of equality of variances and normal distribution of errors were verified using Levene's test. […]"}, "[3]": {"assay": "Rhodamine B fluorescence intensity (lesion porosity) after in vitro pH-proteolytic cycling", "design": "species or system bovine", "conditions": "for decrease percentage of the mean Rhodamine fluorescence (F) exhibited by caries lesions: after treatments (suspended in artificial saliva, 5 times per day for 3 minutes) and pH-proteolytic cycling for 8 days", "method": "An objective of the experimental study was to investigate the effects of mints containing bioactive agents, specifically the xylitol, ACP and eGCG, in the re-mineralization of root dentin surfaces. […] The caries lesions depths and porosity as well as mineral density (hydroxyapatite content) were estimated using fluorescence microscopy and micro-computed tomography. Extracted sound bovine incisors were freshly collected from a slaughterhouse, cleaned and stored at 4° C. in 0.1% thymol for no longer than 2 weeks. Two root fragments (5×4×1 mm) from the cervical portion (mesial and distal) of the root were obtained from each tooth using diamond disk mounted in a cutting machine (Isomet 1000, Buehler, Lake Bluff, IL, USA). The dentin surfaces were polished using #600 and #800 abrasive paper (Carbimet, Buehler) under constant water irrigation. The entire surface of the fragments was sealed with acid-resistant nail polish, except for a 4×3 mm window on the polished dentin surface. The root fragments were placed in a demineralization solution (2.2 mM CaCl2.2H2O, 2.2 mM KH2PO4, 50 mM acetate, pH 4.6) for 96 h at 37° C. to create initial caries lesions of approximately 120 μm-deep (1). Following lesion development, the fragments were rinsed thoroughly with deionized water, and half of the specimens' windows were covered with an acid-resistant nail polish to maintain the baseline lesion. […] The concentrations were optimized to simulate the in vivo conditions in which the normal salivary flow is 0.5 mL/min (2). Thus, one third of the mints (g) were dissolved in 0.5 ml of artificial saliva and the ingredients concentrations were kept at same ratio as in the original mint formulation. […] All solutions were prepared daily prior to use. In addition to pH cycling, the overnight re-mineralization solutions had bacterial collagenase from Chlostridium Histolycum (100 μg/ml) to simulate enzymatic challenge. Each specimen was sectioned perpendicularly to the varnished area so that each section included the baseline and post-treatment lesions. Half of each sample was used for fluorescence microscopy and the other half was used for micro-computed tomography. […] The assumption of equality of variances and normal distribution of errors were verified using Levene's test. Analysis of variance (ANOVA) followed by Scheffe or Game-Howell tests were performed at α=0.05 using SPSS 20 software."}, "[4]": {"assay": "In vitro pH-proteolytic cycling model, overall re-mineralization and tissue observations", "design": "species or system bovine", "excerpt": "(§1) An objective of the experimental study was to investigate the effects of mints containing bioactive agents, specifically the xylitol, ACP and eGCG, in the re-mineralization of root dentin surfaces. […] The caries lesions depths and porosity as well as mineral density (hydroxyapatite content) were estimated using fluorescence microscopy and micro-computed tomography.\nas §1, with “The” for “An”, “this” for “the experimental”, “agents (e.g.” for “agents, specifically the”, “eGCG)” for “eGCG,”, “micro computed” for “micro-computed”\nExtracted sound bovine incisors were freshly collected from a slaughterhouse, cleaned and stored at 4° C. in 0.1% thymol for no longer than 2 weeks. Two root fragments (5×4×1 mm) from the cervical portion (mesial and distal) of the root were obtained from each tooth using diamond disk mounted in a cutting machine (Isomet 1000, Buehler, Lake Bluff, IL, USA). The dentin surfaces were polished using #600 and #800 abrasive paper (Carbimet, Buehler) under constant water irrigation. The entire surface of the fragments was sealed with acid-resistant nail polish, except for a 4×3 mm window on the polished dentin surface. […]"}, "[5]": {"assay": "Caries lesion depth by fluorescence microscopy after in vitro pH-proteolytic cycling", "design": "species or system bovine", "conditions": "after treatments and pH-proteolytic cycling for 8 days", "method": "An objective of the experimental study was to investigate the effects of mints containing bioactive agents, specifically the xylitol, ACP and eGCG, in the re-mineralization of root dentin surfaces. […] The caries lesions depths and porosity as well as mineral density (hydroxyapatite content) were estimated using fluorescence microscopy and micro-computed tomography. Extracted sound bovine incisors were freshly collected from a slaughterhouse, cleaned and stored at 4° C. in 0.1% thymol for no longer than 2 weeks. […] Half of each sample was used for fluorescence microscopy and the other half was used for micro-computed tomography. […] Samples were analyzed with a Fluorescence Microscope (DM16000 B, Leica), using TEX and DIC (differential interference contrast) channels. Fluorescence intensity line profiles obtained in TEX channel images of the pre and post-treatment lesions were analyzed in Image J Software (NIH), thereby providing mean intensity values (per pixel) for red emission channel of each image. The fluorescence intensity is directly related to the porosity of the de-mineralized dentin, where increased porosity is directly related to increased fluorescence intensity. Fluorescence data was presented as percentage difference from post-treatment and pre-treatment lesions of each specimen. […]"}},
  "note": "“Also recorded” adds a separate entry of the source.",
  "data": [
    {"smiles": "OC[C@@H](O)[C@H](O)[C@@H](O)CO", "note": "[xylitol]", "values": [
      {"measurement": "caries-preventive effect on root surfaces", "setting": "[1]", "result": "appears to have a caries-preventive effect on root surfaces"},
      {"measurement": "incidence of smooth-surface, occusal-surface or proximal-surface caries, xylitol vs control participants", "setting": "[1]", "result": "no statistically significant difference"},
      {"measurement": "effect on mineral density of the caries lesion (in words)", "setting": "[2]", "result": "does not help to increase mineral density"},
      {"measurement": "decrease percentage of the mean Rhodamine fluorescence (F) exhibited by caries lesions", "setting": "[3]", "result": 34.92, "unit": "%"},
      {"measurement": "dental tissue loss", "setting": "[4]; after pH-proteolytic cycling and treatments, in artificial saliva", "result": "dental tissue loss occurs; also recorded: Dental tissue loss was mainly observed"},
      {"measurement": "caries re-mineralization (overall conclusion)", "setting": "[4]; artificially induced root caries, in vitro pH-proteolytic cycling", "result": "no significant effect"}
    ]},
    {"smiles": "O=C(O[C@@H]1Cc2c(O)cc(O)cc2O[C@@H]1c1cc(O)c(O)c(O)c1)c1cc(O)c(O)c(O)c1", "note": "[eGCG, epigallocatechin gallate]", "values": [
      {"measurement": "caries lesion depth change from initial lesions (in words)", "setting": "[5]", "result": "Significant (% caries lesion depth) decrease"},
      {"measurement": "effect on mineral density of the caries lesion (in words)", "setting": "[2]", "result": "promotes mineral density similar to fluoride; also recorded: increased mineral density"},
      {"measurement": "increase percentage of the apparent mineral density (mg HA/ccm)", "setting": "[2]", "result": 70.12, "unit": "%"},
      {"measurement": "decrease percentage of the mean Rhodamine fluorescence (F) exhibited by caries lesions", "setting": "[3]", "result": 85.72, "unit": "%"},
      {"measurement": "lesion porosity / fluorescence decrease compared to AS (negative control), statistical significance", "setting": "[3]; after treatments and pH-proteolytic cycling for 8 days", "result": "statistically significant differences; also recorded: significant decrease in lesion porosity"}
    ]},
    {"smiles": "[F-].[Na+]", "note": "[NaF, sodium fluoride]", "values": [
      {"measurement": "increase percentage of the apparent mineral density (mg HA/ccm)", "setting": "[2]", "result": 165.53, "unit": "%"},
      {"measurement": "decrease percentage of the mean Rhodamine fluorescence (F) exhibited by caries lesions", "setting": "[3]", "result": 5.60, "unit": "%"}
    ]}
  ]
}
